In patent publication US20100196273A1, “NOVEL AGENT FOR IN VIVO PET IMAGING OF TUMOR PROLIFERATION” (Board of Regents, University of Texas System, priority 2007, published 2010):

Columns and labels:
[1] = reported, Liu et al. 1998; cited from earlier work
hepatitis B virus (HBV) = details: reported, Liu et al. 1998; cited from earlier work
Epstein-Barr virus = details: reported, Liu et al. 1998; cited from earlier work
[2] = test system: human immunodeficiency virus; details: reported, Liu et al. 1998; cited from earlier work
[3] = test system: H441 (rapidly growing) human NSCLC tumor xenografts; experiment: microPET imaging of tumor proliferative activity, H441 NSCLC xenografts; type: in vivo, nude mice; details: 3.7 MBq via tail vein, 2 h post-injection
Procedure: (§1) All radiotracers were synthesized following literature methods. Two human NSCLC cell lines, H441 (rapidly growing) and H3255 (slow growing) were used to grow (s.c.) tumor xenografts in nude mice. Eight nu/nu mice were injected with 3×10^6 cells (H3255) onto right shoulder, and 3 weeks later, 3×10^6 cells (H441) were injected onto opposite shoulder. When tumors grew approximately 1 cm in diameter, PET imaging with [^18F]-FLT, [^18F]-D-FMAU [^18F]-L-FMAU were performed on three consecutive days. Each animal received 3.7 MBq of radiotracer via the tail vein, then dynamic scan was performed using micro-PET up to 2 hours of post-injection.
(§2) Tumor uptake and tumor-to-muscle (T/M) ratios of [^18F]-FLT, [^18F]-D-FMAU and [^18F]L-FMAU for different tumors are summarized in Table 1. […] On the other hand, tumor-to muscle ratio of [^18F]-FLT accumulation was higher than that for [^18F]-D-FMAU and [^18F]-L-FMAU.

[4] = test system: H3255 (slow growing) human NSCLC tumor xenografts; experiment: microPET imaging of tumor proliferative activity, H3255 NSCLC xenografts; type: in vivo, nude mice; details: 3.7 MBq via tail vein, 2 h post-injection
Procedure: as §1, §2

[5] = test system: Colo205 human colon cancer tumor xenografts; experiment: micro-PET imaging of tumor proliferative activity, Colo205 colon cancer xenografts; type: in vivo, nude mice; details: 3.7 MBq via tail vein, 2 h post-injection
Procedure: The radiotracers, [^18F]-FLT, [^18F]-D-FMAU and [^18F]-L-FMAU, were synthesized according literature methods in high specific activity. Human colon cancer cells, Colo205 were used to grow tumor xenografts in nude mice. Four nu/nu mice were injected (s.c.) with 3×10^6 cells onto the shoulder. When tumors were approximately 1 cm in diameter, PET imaging with [^18F]-FLT, [^18F]-D-FMAU [^18F]-L-FMAU were performed on three consecutive days using one tracer at a time. Each animal received 3.7 MBq of radiotracer via the tail vein, then dynamic imaging was performed using micro-PET up to 2 hours of post-injection.
However, tumor-to muscle ratio of [^18F]-FLT accumulation was lower than that of [^18F]-D-FMAU and [^18F]-L-FMAU. [^18F]-L-FMAU had higher uptake and tumor/muscle ratio compared to the D-[^18F]-FMAU, which is probably due to higher resistance to metabolic degradation.

Compound: Cc1cn([C@H]2O[C@@H](CO)[C@H](O)[C@H]2F)c(=O)[nH]c1=O [L-FMAU, 2′-Deoxy-2′-fluoro-5-methyl-1-β-L-arabinofuranosyl-uracil]
- cytotoxicity [1]: low cytotoxicity
- antiviral activity against hepatitis B virus (hepatitis B virus (HBV)): potential antiviral activities
- antiviral activity against Epstein-Barr virus (Epstein-Barr virus): potential antiviral activities
- antiviral activity against human immunodeficiency virus [2]: not human immunodeficiency virus

Compound: Cc1cn([C@@H]2O[C@H](CO)[C@@H](O)[C@@H]2[18F])c(=O)[nH]c1=O [[^18F]-D-FMAU]
- Tumor uptake % ID/g [3]: 7.74 ± 1.39 % ID/g
- tumor-to-muscle (T/M) ratio [3]: 3.37 ± 1.19
- Tumor uptake % ID/g [4]: 4.49 ± 1.08 % ID/g
- tumor-to-muscle (T/M) ratio [4]: 1.96 ± 0.74
- Tumor uptake % ID/g [5]: 2.37 ± 0.58 % ID/g
- tumor-to-muscle (T/M) ratio [5]: 1.95 ± 0.37

Compound: Cc1cn([C@H]2C[C@H]([18F])[C@@H](CO)O2)c(=O)[nH]c1=O [[^18F]-FLT, [^18F]-3′-deoxy-3′-fluorothymidine]
- Tumor uptake % ID/g [3]: 5.10 ± 1.45 % ID/g
- tumor-to-muscle (T/M) ratio [3]: 12.94 ± 4.38
- Tumor uptake % ID/g [4]: 0.57 ± 0.33 % ID/g
- tumor-to-muscle (T/M) ratio [4]: 1.50 ± 0.90
- Tumor uptake % ID/g [5]: 5.20 ± 1.32 % ID/g
- tumor-to-muscle (T/M) ratio [5]: 1.51 ± 0.61

Compound: Cc1cn([C@H]2O[C@@H](CO)[C@H](O)[C@H]2[18F])c(=O)[nH]c1=O [[^18F]-L-FMAU, 2′ deoxy-2′-[^18F]-fluoro-5-methyl-1-β-L-arabinofuranosyluracil]
- Tumor uptake % ID/g [3]: 3.13 ± 1.11 % ID/g
- tumor-to-muscle (T/M) ratio [3]: 4.15 ± 1.82
- Tumor uptake % ID/g [4]: 1.38 ± 0.81 % ID/g
- tumor-to-muscle (T/M) ratio [4]: 1.62 ± 0.50
- Tumor uptake % ID/g [5]: 2.93 ± 0.75 % ID/g
- tumor-to-muscle (T/M) ratio [5]: 2.85 ± 0.89
